Test results reported in patent US11332455B2, “α,β-unsaturated amide compound” (KYOWA KIRIN CO., LTD., priority 2015, dated 2022).

Legend:
[1] = tested on: NCI-H226 cells, a human mesothelioma cell line; test: Cell growth inhibitory effect, cell counting kit 8, 6 days; assay type: cell-based; conditions: 144 h, 6 days incubation
Excerpt: (§1) Cell growth inhibitory effect on human mesothelioma, human liver cancer, human ovarian cancer, and […]
(§2) NCI-H226 cells, a human mesothelioma cell line (ATCC, CRL-5826), NCI-H322 cells, a human lung cancer cell line (the European Collection of Authenticated Cell Cultures, 95111734), OVTOKO cells, a human ovarian cancer cell line (JCRB cell bank, JCRB1048) and HuH28, a human liver cancer cell line (JCRB cell bank, JCRB0426) were each subcultured by keeping the cell density under 80% in a RPMI1640 culture medium with 10% fetal bovine serum (FBS). NCI-H226 cells, NCI-H322 cells and SSP-25 cells were each suspended in the RPM11640 culture medium mentioned above, and plated to a 96-well flat-bottom plate at 500 cells/well in each well, and incubated at 37° C. in an incubator with 5% CO2 for one day. After the incubation, the evaluation of cell growth inhibitory activity was started. OVTOKO cells were suspended in the RPMI1640 culture medium mentioned above, and plated to a 96-well flat-bottom plate at 250 cells/well in each well, and incubated it at 37° C. in an incubator with 5% CO2 for one day. After the incubation, the evaluation of the cell growth inhibitory activity was started. The next day, a test compound was serially diluted to 5 times of its final concentration in the RPM11640 culture medium mentioned above, and the diluted solution was added to each well. In this case, the final concentration of DMSO in each well was adjusted to 0.1%. After the test compound was added, cells were incubated at 37° C. in an incubator with 5% CO2 for 6 days. At the addition of the test compound and 6 days after the addition, the cell counting measurement was performed using a cell counting kit 8 (made by DOJINDO) according to a protocol equivalent to DOJINDO's recommendation. A reagent contained in the kit was added to each plate and color reaction was performed for 2 or 3 hours at 37° C. in an incubator with 5% CO2. After the reaction, an absorbance at wavelength of 450 nm was measured using a microplate reader. A growth inhibition rate was calculated according to the following formula, from which the concentration of a test compound at which cell growth was inhibited by 50% (GI50 value) was determined.

[2] = tested on: NCI-H322 cells, a human lung cancer cell line; test: as above; assay type: cell-based; conditions: 144 h, 6 days incubation
Excerpt: as §1, §2

[3] = group 100 nmol/L to 1 μmol/L (upper bound given in μmol/L)

| SMILES | GI50 ([1]; group less than 100 nmol/L) [µM] | GI50 [2] [µM] | GI50 [1, 3] [µM] |
| --- | --- | --- | --- |
| C=CC(=O)N[C@H]1CC[C@@H](Oc2ccc(Cl)cc2)c2nc(Cl)ccc21 (relative stereo) [Compound 70, cis-N-{2-Chloro-8-(4-chlorophenoxy)-5,6,7,8-tetrahydroquinolin-5-yl}acrylamide] | < 0.1 | < 1 | – |
| C=CC(=O)N[C@H]1CC[C@@H](Oc2ccc(Cl)cc2)c2nc(OC)ccc21 (relative stereo) [Compound 71, cis-N-{8-(4-Chlorophenoxy)-2-methoxy-5,6,7,8-tetrahydroquinolin-5-yl}acrylamide] | < 0.1 | < 1 | – |
| C=CC(=O)NC1CCOc2c1ccc(Oc1ccc(Cl)cc1)c2C (centres unmarked) [Compound 27, N-{7-(4-Chlorophenoxy)-8-methylchroman-4-yl}acrylamide] | < 0.1 | < 1 | – |
| C=CC(=O)NC1CCOc2c1ccc(Oc1ccc(Cl)cc1)c2OC (centres unmarked) [Compound 32, N-{7-(4-Chlorophenoxy)-8-methoxychroman-4-yl}acrylamide] | < 0.1 | < 1 | – |
| C=CC(=O)NC1COc2c(Oc3ccc(Cl)cc3)ccc(C)c2C1 (centres unmarked) [Compound 41, N-{8-(4-Chlorophenoxy)-5-methylchroman-3-yl}acrylamide] | < 0.1 | < 1 | – |
| C=CC(=O)NC1COc2c(cccc2Oc2ccc(Cl)cc2)C1 (centres unmarked) [Compound 59, N-{8-(4-chlorophenoxy)chroman-3-yl}acrylamide] | < 0.1 | < 1 | – |
| C=CC(=O)Nc1cncc(Oc2ccc(C(F)(F)F)c(F)c2)c1 [Compound 106, N-[5-{3-Fluoro-4-(trifluoromethyl)phenoxy}pyridin-3-yl]acrylamide] | – | < 1 | 0.1 to 1 |
| C=CC(=O)Nc1cncc(Oc2ccc(C(F)(F)F)cn2)c1 [Compound 109, N-(5-[{5-(Trifluoromethyl)pyridin-2-yl}oxy]pyridin-3-yl)acrylamide] | < 0.1 | < 1 | – |
| C=CC(=O)NC1COc2c(cccc2Oc2cnc(C(F)(F)F)cn2)C1 (centres unmarked) [Compound 157, N-(8-[{5-(Trifluoromethyl)pyrazin-2-yl}oxy]chroman-3-yl)acrylamide] | < 0.1 | < 1 | – |
| C=CC(=O)NC1COc2c(cc(C(F)(F)F)cc2Oc2ccc(C(F)(F)F)nc2)C1 (centres unmarked) [Compound 162, N-{6-(Trifluoromethyl)-8-[{6-(trifluoromethyl)pyridin-3-yl}oxy]chroman-3-yl}acrylamide] | – | < 1 | 0.1 to 1 |
| C=CC(=O)NC1CCOc2c1ccc(Oc1ccc(F)cc1)c2F (centres unmarked) [Compound 167, N-{8-Fluoro-7-(4-fluorophenoxy)chroman-4-yl}acrylamide] | < 0.1 | – | – |
| C=CC(=O)NC1CCOc2c1ccc(Oc1ccc(C(F)(F)F)nc1)c2OCC (centres unmarked) [Compound 172, N-(8-Ethoxy-7-[{6-(trifluoromethyl)pyridin-3-yl}oxy]chroman-4-yl)acrylamide] | – | – | 0.1 to 1 |
| C=CC(=O)NCc1ccc(Oc2ccc(C(F)(F)F)nc2)c2cccnc12 [Compound 219, N-{(5-[{6-(Trifluoromethyl)pyridin-3-yl}oxy]quinolin-8-yl)methyl}acrylamide] | < 0.1 | < 1 | – |
| C=CC(=O)NC1COc2c(cc(Br)cc2Oc2ccc(C(F)(F)F)nc2)C1 (centres unmarked) [Compound 231, N-(6-Bromo-8-[{6-(trifluoromethyl)pyridin-3-yl}oxy]chroman-3-yl)acrylamide] | < 0.1 | – | – |

Now from value to molecule:

| GI50 ([1]; group less than 100 nmol/L) [µM] | GI50 [2] [µM] | GI50 [1, 3] [µM] | SMILES |
| --- | --- | --- | --- |
| < 0.1 | < 1 | – | C=CC(=O)NC1COc2c(cccc2Oc2ccc(C(F)(F)F)nc2)C1 (racemic) [Compound 51, N-(8-[{6-(Trifluoromethyl)pyridin-3-yl}oxy]chroman-3-yl)acrylamide] |
| < 0.1 | < 1 | – | C=CC(=O)N[C@@H]1c2ccc(Oc3ccc(C(F)(F)F)cc3)cc2OC[C@@H]1F (relative stereo) [Compound 21, cis-N-[3-Fluoro-7-{4-(trifluoromethyl)phenoxy}chroman-4-yl]acrylamide] |
| < 0.1 | < 1 | – | C=CC(=O)N[C@H]1CC[C@@H](Oc2ccc(C(F)(F)F)cc2)c2nc(Cl)ccc21 (relative stereo) [Compound 76, cis-N-[2-Chloro-8-{4-(trifluoromethyl)phenoxy}-5,6,7,8-tetrahydroquinolin-5-yl]acrylamide] |
| < 0.1 | < 1 | – | C=CC(=O)N[C@H]1CC[C@H](Oc2ccc(C(F)(F)F)cc2)c2nc(Cl)ccc21 (relative stereo) [Compound 82, trans-N-[2-Chloro-8-{4-(trifluoromethyl)phenoxy}-5,6,7,8-tetrahydroquinolin-5-yl]acrylamide] |
| < 0.1 | < 1 | – | C=CC(=O)N[C@H]1CC[C@@H](Oc2ccc(C(F)(F)F)cc2)c2nc(C)ccc21 (relative stereo) [Compound 184, cis-N-[2-Methyl-8-{4-(trifluoromethyl)phenoxy}-5,6,7,8-tetrahydroquinolin-5-yl]acrylamide] |
| < 0.1 | < 1 | – | C=CC(=O)NC1COc2cccc(Oc3ccc(C(F)(F)F)cc3)c2C1 (centres unmarked) [Compound 35, N-[5-{4-(Trifluoromethyl)phenoxy}chroman-3-yl]acrylamide] |
| – | < 1 | – | C=CC(=O)NC1COc2cc(Oc3ccc(Cl)cc3)ccc2C1 (centres unmarked) [Compound 37, N-{7-(4-Chlorophenoxy)chroman-3-yl}acrylamide] |
| – | < 1 | – | C=CC(=O)NC1COc2c(cccc2Oc2ccc(C(F)(F)F)cc2)C1 (centres unmarked) [Compound 61, N-[8-{4-(Trifluoromethyl)phenoxy}chroman-3-yl]acrylamide] |
| – | < 1 | – | C=CC(=O)NC1COc2c(cccc2Oc2ccc(C(F)(F)F)cn2)C1 (centres unmarked) [Compound 64, N-(8-[{5-(Trifluoromethyl)pyridin-2-yl}oxy]chroman-3-yl)acrylamide] |
| < 0.1 | < 1 | – | C=CC(=O)NCc1ccc(Oc2ccc(C(F)(F)F)cc2)c2cccnc12 [Compound 216, N-([5-{4-(Trifluoromethyl)phenoxy}quinolin-8-yl]methyl)acrylamide] |
| – | < 1 | 0.1 to 1 | C=CC(=O)NCc1cc(Oc2ccc(C(F)(F)F)cc2)cc2ncccc12 [Compound 220, N-([7-{4-(Trifluoromethyl)phenoxy}quinolin-5-yl]methyl)acrylamide] |
| – | – | 0.1 to 1 | C=CC(=O)NCc1cc(Oc2ccc(C(F)(F)F)cc2)cc2cccnc12 [Compound 221, N-([6-{4-(Trifluoromethyl)phenoxy}quinolin-8-yl]methyl)acrylamide] |
| – | < 1 | – | C=CC(=O)NC1CCC(Oc2ccc(C(F)(F)F)cc2)c2cnccc21 (centres unmarked) [Compound 228, N-[8-{4-(Trifluoromethyl)phenoxy}-5,6,7,8-tetrahydroisoquinolin-5-yl]acrylamide] |
| < 0.1 | < 1 | – | C=CC(=O)NC1COc2c(cccc2Oc2ccc(C(F)(F)F)nc2)C1 (centres unmarked) [Compound 229, N-(8-[{6-(Trifluoromethyl)pyridin-3-yl}oxy]chroman-3-yl)acrylamide] |
| < 0.1 | – | – | C=CC(=O)NC1CCOc2c1ccc(Oc1ccc(C(F)(F)F)cc1)c2OC (centres unmarked) [Compound 237, N-[8-Methoxy-7-{4-(trifluoromethyl)phenoxy}chroman-4-yl]acrylamide] |
| < 0.1 | – | – | C=CC(=O)NC1CCOc2c1ccc(Oc1ccc(C(F)(F)F)cc1)c2F (centres unmarked) [Compound 239, N-[8-Fluoro-7-{4-(trifluoromethyl)phenoxy}chroman-4-yl]acrylamide] |
